# Legend:
# [1] = test system: Tyrosine-protein kinase ABL1 (Homo sapiens), P00519 [F317I]; details: Compound concentration 1000.0 nM
# [2] = molecular target: Dual specificity protein kinase CLK1 (Homo sapiens) (UniProt P49759); details: Compound concentration 1000.0 nM
# [3] = molecular target: NUAK family SNF1-like kinase 1 (Homo sapiens) (UniProt O60285); details: Compound concentration 1000.0 nM
# [4] = molecular target: Phosphorylase b kinase gamma catalytic chain, skeletal muscle/heart isoform (Homo sapiens) (UniProt Q16816); details: Compound concentration 1000.0 nM
# [5] = test system: Tyrosine-protein kinase ABL1 (Homo sapiens), P00519 [Q252H]; details: Compound concentration 1000.0 nM
# [6] = molecular target: Cyclin-dependent kinase 17 (Homo sapiens) (UniProt Q00537); details: Compound concentration 1000.0 nM
# [7] = molecular target: Tyrosine-protein kinase Yes (Homo sapiens) (UniProt P07947); details: Compound concentration 1000.0 nM
# [8] = molecular target: Hepatocyte growth factor receptor (Homo sapiens) (UniProt P08581); details: Compound concentration 1000.0 nM
# [9] = molecular target: Atypical kinase COQ8B, mitochondrial (Homo sapiens) (UniProt Q96D53); details: Compound concentration 1000.0 nM
# [10] = molecular target: Mitogen-activated protein kinase kinase kinase kinase 2 (Homo sapiens) (UniProt Q12851); details: Compound concentration 1000.0 nM
# [11] = molecular target: Tyrosine-protein kinase BTK (Homo sapiens) (UniProt Q06187); details: Compound concentration 1000.0 nM
# [12] = molecular target: Activin receptor type-1B (Homo sapiens) (UniProt P36896); details: Compound concentration 1000.0 nM
# [13] = test system: Fibroblast growth factor receptor 3 (Homo sapiens), P22607 [G697C]; details: Compound concentration 1000.0 nM
# [14] = molecular target: Serine/threonine-protein kinase TAO1 (Homo sapiens) (UniProt Q7L7X3); details: Compound concentration 1000.0 nM
# [15] = molecular target: Protein kinase C epsilon type (Homo sapiens) (UniProt Q02156); details: Compound concentration 1000.0 nM
# Sequence of Protein kinase C epsilon type (Homo sapiens) (Q02156 whole entry): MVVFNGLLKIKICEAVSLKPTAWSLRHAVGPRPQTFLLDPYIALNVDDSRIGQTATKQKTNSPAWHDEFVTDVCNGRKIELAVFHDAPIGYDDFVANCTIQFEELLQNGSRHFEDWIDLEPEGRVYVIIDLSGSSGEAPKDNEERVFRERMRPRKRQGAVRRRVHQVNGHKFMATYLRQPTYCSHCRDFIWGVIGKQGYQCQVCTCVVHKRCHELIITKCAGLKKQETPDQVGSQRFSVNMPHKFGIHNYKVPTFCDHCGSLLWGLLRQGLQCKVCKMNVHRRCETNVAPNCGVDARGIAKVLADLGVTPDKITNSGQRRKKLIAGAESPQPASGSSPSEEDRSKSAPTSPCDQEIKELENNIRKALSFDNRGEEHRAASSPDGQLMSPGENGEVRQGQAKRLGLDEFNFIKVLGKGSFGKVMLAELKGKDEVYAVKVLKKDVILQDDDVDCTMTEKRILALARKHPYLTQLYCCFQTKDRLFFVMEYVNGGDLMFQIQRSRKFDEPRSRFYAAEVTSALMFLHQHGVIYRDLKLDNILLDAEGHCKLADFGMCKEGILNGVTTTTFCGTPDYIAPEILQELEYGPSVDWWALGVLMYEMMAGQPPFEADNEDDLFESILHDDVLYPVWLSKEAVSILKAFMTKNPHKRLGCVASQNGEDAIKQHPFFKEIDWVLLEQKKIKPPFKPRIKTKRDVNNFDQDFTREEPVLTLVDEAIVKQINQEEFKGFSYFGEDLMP
# [16] = molecular target: Ephrin type-A receptor 8 (Homo sapiens) (UniProt P29322); details: Compound concentration 1000.0 nM
# [17] = molecular target: Histamine H3 receptor (Homo sapiens) (UniProt Q9Y5N1); details: Compound concentration 10.0 uM
# Sequence of Histamine H3 receptor (Homo sapiens) (Q9Y5N1 whole entry): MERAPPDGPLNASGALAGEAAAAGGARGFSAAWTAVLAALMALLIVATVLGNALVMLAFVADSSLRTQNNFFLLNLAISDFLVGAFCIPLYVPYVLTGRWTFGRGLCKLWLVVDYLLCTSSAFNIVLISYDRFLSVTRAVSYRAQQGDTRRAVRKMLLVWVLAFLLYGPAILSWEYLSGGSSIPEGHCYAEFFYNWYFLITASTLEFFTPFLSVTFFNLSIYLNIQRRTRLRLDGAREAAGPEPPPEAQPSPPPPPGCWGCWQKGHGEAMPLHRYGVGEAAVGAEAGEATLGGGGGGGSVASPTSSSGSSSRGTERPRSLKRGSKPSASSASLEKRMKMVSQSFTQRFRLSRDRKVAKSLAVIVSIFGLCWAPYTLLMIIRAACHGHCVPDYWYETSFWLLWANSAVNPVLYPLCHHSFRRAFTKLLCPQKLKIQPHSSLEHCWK
# [18] = molecular target: Non-receptor tyrosine-protein kinase TYK2 (Homo sapiens) (UniProt P29597); details: Compound concentration 1000.0 nM
# Sequence of Non-receptor tyrosine-protein kinase TYK2 (Homo sapiens) (P29597 whole entry): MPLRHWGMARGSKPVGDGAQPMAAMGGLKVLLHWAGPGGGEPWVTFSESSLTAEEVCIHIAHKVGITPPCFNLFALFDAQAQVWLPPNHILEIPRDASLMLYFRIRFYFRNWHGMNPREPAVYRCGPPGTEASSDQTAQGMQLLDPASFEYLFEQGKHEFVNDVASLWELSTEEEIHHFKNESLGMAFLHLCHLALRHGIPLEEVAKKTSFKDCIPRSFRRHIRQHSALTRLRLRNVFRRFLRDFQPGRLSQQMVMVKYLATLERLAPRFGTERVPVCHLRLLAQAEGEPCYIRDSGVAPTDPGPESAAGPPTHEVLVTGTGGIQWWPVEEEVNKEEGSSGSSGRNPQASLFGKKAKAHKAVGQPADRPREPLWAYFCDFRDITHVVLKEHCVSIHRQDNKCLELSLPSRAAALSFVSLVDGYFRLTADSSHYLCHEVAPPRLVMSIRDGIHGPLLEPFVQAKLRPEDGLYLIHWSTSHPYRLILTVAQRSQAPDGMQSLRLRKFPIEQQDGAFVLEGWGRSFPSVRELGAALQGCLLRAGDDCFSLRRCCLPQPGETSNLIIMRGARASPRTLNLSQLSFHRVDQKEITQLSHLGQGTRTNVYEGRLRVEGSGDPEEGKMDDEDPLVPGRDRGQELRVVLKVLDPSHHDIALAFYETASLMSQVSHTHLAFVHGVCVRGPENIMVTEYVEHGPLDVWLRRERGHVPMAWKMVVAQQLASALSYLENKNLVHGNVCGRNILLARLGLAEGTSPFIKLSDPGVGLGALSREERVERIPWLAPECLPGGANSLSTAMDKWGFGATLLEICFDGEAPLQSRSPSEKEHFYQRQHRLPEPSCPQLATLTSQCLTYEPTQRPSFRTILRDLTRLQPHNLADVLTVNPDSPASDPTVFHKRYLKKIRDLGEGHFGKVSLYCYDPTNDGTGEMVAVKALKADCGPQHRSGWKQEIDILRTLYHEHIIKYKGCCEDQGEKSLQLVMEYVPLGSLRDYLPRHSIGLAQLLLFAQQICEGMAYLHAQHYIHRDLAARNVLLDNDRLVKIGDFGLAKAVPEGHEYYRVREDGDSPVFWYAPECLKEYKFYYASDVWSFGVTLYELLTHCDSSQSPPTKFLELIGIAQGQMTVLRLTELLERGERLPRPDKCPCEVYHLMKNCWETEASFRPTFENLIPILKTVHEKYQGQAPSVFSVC
# [19] = molecular target: Fibroblast growth factor receptor 1 (Homo sapiens) (UniProt P11362); details: Compound concentration 1000.0 nM
# Sequence of Fibroblast growth factor receptor 1 (Homo sapiens) (P11362 22-822 limits assumed): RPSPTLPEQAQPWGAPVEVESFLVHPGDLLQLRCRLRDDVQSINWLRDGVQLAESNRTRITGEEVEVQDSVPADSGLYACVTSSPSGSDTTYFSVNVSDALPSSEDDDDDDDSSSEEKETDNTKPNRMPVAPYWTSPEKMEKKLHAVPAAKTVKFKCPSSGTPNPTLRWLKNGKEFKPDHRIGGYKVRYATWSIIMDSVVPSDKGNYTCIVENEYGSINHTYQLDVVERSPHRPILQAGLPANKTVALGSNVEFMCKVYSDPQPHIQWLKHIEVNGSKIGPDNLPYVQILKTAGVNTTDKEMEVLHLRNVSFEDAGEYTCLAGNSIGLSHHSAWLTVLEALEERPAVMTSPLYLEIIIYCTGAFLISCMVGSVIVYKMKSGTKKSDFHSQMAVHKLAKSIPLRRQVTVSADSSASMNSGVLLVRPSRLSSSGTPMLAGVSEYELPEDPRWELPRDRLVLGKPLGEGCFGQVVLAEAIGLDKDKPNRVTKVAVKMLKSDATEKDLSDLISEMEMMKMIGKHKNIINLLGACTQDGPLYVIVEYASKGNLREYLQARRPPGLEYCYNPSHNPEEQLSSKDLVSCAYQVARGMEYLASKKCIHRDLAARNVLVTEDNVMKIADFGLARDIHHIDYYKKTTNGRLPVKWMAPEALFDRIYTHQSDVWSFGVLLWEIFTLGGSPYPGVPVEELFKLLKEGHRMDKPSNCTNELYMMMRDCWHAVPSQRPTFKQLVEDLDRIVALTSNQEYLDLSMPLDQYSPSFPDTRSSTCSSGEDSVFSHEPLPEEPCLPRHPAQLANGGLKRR
# [20] = molecular target: Receptor-interacting serine/threonine-protein kinase 1 (Homo sapiens) (UniProt Q13546); details: Compound concentration 1000.0 nM
# [21] = test system: Epidermal growth factor receptor (Homo sapiens), P00533 [G719C]; details: Compound concentration 1000.0 nM
# [22] = molecular target: Calcium/calmodulin-dependent protein kinase type II subunit alpha (Homo sapiens) (UniProt Q9UQM7); details: Compound concentration 1000.0 nM
# Sequence of Calcium/calmodulin-dependent protein kinase type II subunit alpha (Homo sapiens) (Q9UQM7 whole entry): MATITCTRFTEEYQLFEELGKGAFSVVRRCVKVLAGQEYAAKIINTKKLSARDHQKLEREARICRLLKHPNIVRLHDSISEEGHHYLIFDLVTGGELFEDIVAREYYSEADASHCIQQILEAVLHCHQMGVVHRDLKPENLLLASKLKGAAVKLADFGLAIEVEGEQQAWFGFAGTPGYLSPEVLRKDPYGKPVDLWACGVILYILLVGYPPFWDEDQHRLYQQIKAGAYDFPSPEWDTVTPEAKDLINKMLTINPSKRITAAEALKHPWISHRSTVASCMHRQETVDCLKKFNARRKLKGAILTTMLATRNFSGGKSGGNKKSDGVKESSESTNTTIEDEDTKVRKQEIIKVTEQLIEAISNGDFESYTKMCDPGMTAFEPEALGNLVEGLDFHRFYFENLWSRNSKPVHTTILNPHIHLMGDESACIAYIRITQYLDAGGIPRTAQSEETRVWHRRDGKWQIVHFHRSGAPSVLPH
# [23] = molecular target: Sodium-dependent noradrenaline transporter (Homo sapiens) (UniProt P23975); details: Compound concentration 10.0 uM
# [24] = molecular target: Activin receptor type-1 (Homo sapiens) (UniProt Q04771); details: Compound concentration 1000.0 nM
# [25] = molecular target: Receptor tyrosine-protein kinase erbB-4 (Homo sapiens) (UniProt Q15303); details: Compound concentration 1000.0 nM
# [26] = molecular target: 5'-AMP-activated protein kinase catalytic subunit alpha-1 (Homo sapiens) (UniProt Q13131); details: Compound concentration 1000.0 nM
# Sequence of 5'-AMP-activated protein kinase catalytic subunit alpha-1 (Homo sapiens) (Q13131 whole entry, looked up): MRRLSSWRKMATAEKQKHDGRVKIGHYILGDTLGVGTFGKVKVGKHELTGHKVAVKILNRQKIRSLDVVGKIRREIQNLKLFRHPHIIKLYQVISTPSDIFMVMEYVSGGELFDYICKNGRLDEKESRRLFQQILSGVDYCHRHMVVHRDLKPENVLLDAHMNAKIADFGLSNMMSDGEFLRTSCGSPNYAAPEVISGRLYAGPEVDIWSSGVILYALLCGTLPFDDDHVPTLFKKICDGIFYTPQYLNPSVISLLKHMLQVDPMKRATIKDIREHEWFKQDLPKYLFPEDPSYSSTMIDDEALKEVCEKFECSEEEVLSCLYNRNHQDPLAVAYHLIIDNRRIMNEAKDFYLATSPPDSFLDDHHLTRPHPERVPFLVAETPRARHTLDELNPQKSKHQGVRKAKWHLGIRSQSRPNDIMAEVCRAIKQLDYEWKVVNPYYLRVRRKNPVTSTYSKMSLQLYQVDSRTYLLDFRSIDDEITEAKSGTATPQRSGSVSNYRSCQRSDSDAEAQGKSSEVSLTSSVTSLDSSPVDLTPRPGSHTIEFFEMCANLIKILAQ
# [27] = molecular target: Non-receptor tyrosine-protein kinase TNK1 (Homo sapiens) (UniProt Q13470); details: Compound concentration 1000.0 nM
# [28] = molecular target: Ephrin type-B receptor 1 (Homo sapiens) (UniProt P54762); details: Compound concentration 1000.0 nM
# [29] = molecular target: Serine/threonine-protein kinase 32B (Homo sapiens) (UniProt Q9NY57); details: Compound concentration 1000.0 nM
# Sequence of Serine/threonine-protein kinase 32B (Homo sapiens) (Q9NY57 whole entry): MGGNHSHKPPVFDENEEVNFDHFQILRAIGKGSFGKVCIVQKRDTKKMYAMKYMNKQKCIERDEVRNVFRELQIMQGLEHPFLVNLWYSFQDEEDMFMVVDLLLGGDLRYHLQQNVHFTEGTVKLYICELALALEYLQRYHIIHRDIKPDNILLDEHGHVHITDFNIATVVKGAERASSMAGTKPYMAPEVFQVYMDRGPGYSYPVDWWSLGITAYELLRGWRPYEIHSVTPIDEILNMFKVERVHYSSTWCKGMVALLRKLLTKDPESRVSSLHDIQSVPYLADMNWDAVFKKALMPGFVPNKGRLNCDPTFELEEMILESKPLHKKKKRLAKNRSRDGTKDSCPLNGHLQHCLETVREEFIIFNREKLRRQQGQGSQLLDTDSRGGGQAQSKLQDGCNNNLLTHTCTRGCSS
# [30] = molecular target: Activin receptor type-2A (Homo sapiens) (UniProt P27037); details: Compound concentration 1000.0 nM
# [31] = molecular target: Serine/threonine-protein kinase PLK2 (Homo sapiens) (UniProt Q9NYY3); details: Compound concentration 1000.0 nM
# [32] = molecular target: Casein kinase I isoform gamma-1 (Homo sapiens) (UniProt Q9HCP0); details: Compound concentration 1000.0 nM
# Sequence of Casein kinase I isoform gamma-1 (Homo sapiens) (Q9HCP0 whole entry, looked up, canonical isoform): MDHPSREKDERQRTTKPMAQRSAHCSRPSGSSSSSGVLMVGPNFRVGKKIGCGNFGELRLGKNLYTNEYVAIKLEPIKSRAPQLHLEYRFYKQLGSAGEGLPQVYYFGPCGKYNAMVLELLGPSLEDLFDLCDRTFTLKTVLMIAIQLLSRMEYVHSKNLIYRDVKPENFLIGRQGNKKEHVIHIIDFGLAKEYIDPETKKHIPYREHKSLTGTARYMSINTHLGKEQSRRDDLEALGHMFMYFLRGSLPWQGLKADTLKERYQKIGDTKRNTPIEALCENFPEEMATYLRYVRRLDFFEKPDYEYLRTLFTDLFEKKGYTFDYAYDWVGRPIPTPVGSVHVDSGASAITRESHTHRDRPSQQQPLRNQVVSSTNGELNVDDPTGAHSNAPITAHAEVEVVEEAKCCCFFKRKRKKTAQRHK
# [33] = test system: eIF-2-alpha kinase GCN2 (Homo sapiens), Q9P2K8 [S808G]; details: Compound concentration 1000.0 nM
# [34] = molecular target: Tyrosine-protein kinase TXK (Homo sapiens) (UniProt P42681); details: Compound concentration 1000.0 nM
# [35] = molecular target: Cyclin-dependent kinase 15 (Homo sapiens) (UniProt Q96Q40); details: Compound concentration 1000.0 nM
# [36] = molecular target: Serine/threonine-protein kinase WNK4 (Homo sapiens) (UniProt Q96J92); details: Compound concentration 1000.0 nM
# [37] = molecular target: NUAK family SNF1-like kinase 2 (Homo sapiens) (UniProt Q9H093); details: Compound concentration 1000.0 nM
# [38] = molecular target: Dual specificity protein kinase CLK3 (Homo sapiens) (UniProt P49761); details: Compound concentration 1000.0 nM
# [39] = molecular target: Death-associated protein kinase 2 (Homo sapiens) (UniProt Q9UIK4); details: Compound concentration 1000.0 nM
# [40] = test system: Receptor-type tyrosine-protein kinase FLT3 (Homo sapiens), P36888 [UNDEFINED MUTATION]; details: Compound concentration 1000.0 nM
# [41] = molecular target: Mitogen-activated protein kinase kinase kinase 2 (Homo sapiens) (UniProt Q9Y2U5); details: Compound concentration 1000.0 nM
# [42] = molecular target: Testis-specific serine/threonine-protein kinase 3 (Homo sapiens) (UniProt Q96PN8); details: Compound concentration 1000.0 nM
# [43] = molecular target: Serine/threonine-protein kinase D2 (Homo sapiens) (UniProt Q9BZL6); details: Compound concentration 1000.0 nM
# [44] = molecular target: Serine/threonine-protein kinase Nek6 (Homo sapiens) (UniProt Q9HC98); details: Compound concentration 1000.0 nM
# [45] = molecular target: Casein kinase I isoform gamma-3 (Homo sapiens) (UniProt Q9Y6M4); details: Compound concentration 1000.0 nM
compound,measurement,setting,value
O=c1nc(-c2ccccn2)sc2ccccc12 [BTZO-1],residual activity,[1],91%
same,residual activity,[2],99%
same,residual activity,[3],100%
same,residual activity,[4],84%
same,residual activity,[5],96%
same,residual activity,[6],100%
same,residual activity,[7],100%
same,residual activity,[8],74%
same,residual activity,[9],60%
same,residual activity,[10],100%
same,residual activity,[11],96%
same,residual activity,[12],100%
same,residual activity,[13],100%
same,residual activity,[14],92%
same,residual activity,[15],100%
same,residual activity,[16],78%
same,inhibition,[17],2%
same,residual activity,[18],100%
same,residual activity,[19],100%
same,residual activity,[20],83%
same,residual activity,[21],77%
same,residual activity,[22],100%
same,inhibition,[23],-0.363%
same,residual activity,[24],79%
same,residual activity,[25],96%
same,residual activity,[26],100%
same,residual activity,[27],59%
same,residual activity,[28],88%
same,residual activity,[29],100%
same,residual activity,[30],91%
same,residual activity,[31],95%
same,residual activity,[32],96%
same,residual activity,[33],47%
same,residual activity,[34],81%
same,residual activity,[35],75%
same,residual activity,[36],100%
same,residual activity,[37],100%
same,residual activity,[38],96%
same,residual activity,[39],86%
same,residual activity,[40],100%
same,residual activity,[41],92%
same,residual activity,[42],86%
same,residual activity,[43],97%
same,residual activity,[44],100%
same,residual activity,[45],100%
O=C1NC(c2ccccn2)Sc2ccccc21 (stereo not given) [BTZO-4],residual activity,[1],88%
same,residual activity,[2],98%
same,residual activity,[3],95%
same,residual activity,[4],76%
same,residual activity,[5],75%
same,residual activity,[6],100%
same,residual activity,[7],100%
same,residual activity,[8],68%
same,residual activity,[9],67%
same,residual activity,[10],83%
same,residual activity,[11],74%
same,residual activity,[12],99%
same,residual activity,[13],100%
same,residual activity,[14],96%
same,residual activity,[15],96%
same,residual activity,[16],63%
same,inhibition,[17],8.1%
same,residual activity,[18],88%
same,residual activity,[19],85%
same,residual activity,[20],81%
same,residual activity,[21],87%
same,residual activity,[22],100%
same,inhibition,[23],28.7%
same,residual activity,[24],82%
same,residual activity,[25],77%
same,residual activity,[26],100%
same,residual activity,[27],55%
same,residual activity,[28],90%
same,residual activity,[29],100%
same,residual activity,[30],100%
same,residual activity,[31],97%
same,residual activity,[32],90%
same,residual activity,[33],42%
same,residual activity,[34],100%
same,residual activity,[35],63%
same,residual activity,[36],100%
same,residual activity,[37],100%
same,residual activity,[38],97%
same,residual activity,[39],79%
same,residual activity,[40],100%
same,residual activity,[41],82%
same,residual activity,[42],88%
same,residual activity,[43],96%
same,residual activity,[44],84%
same,residual activity,[45],100%

# Source: ChEMBL document CHEMBL4507329, “Data for DCP probe BTZO-1” (2021)
